These results are taken from US5624923A, “Tricyclic diazepine vasopressin antagonists and oxytocin antagonists” (priority 1995, dated 1997).

Where two headings read alike, the source gives them in different places.

For one test, the system named is Vasopressin V2. Put plainly: Vasopressin V2 Antagonist Activity in Conscious Hydrated Rats. In kind it is in vivo, rat. The note with it: 10 mg/kg orally, AVP 0.4 μg/kg i.p. The gist of the method: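 Four-hour urine output, osmolality and electrolytes (Na+, K+, Cl−) recorded in water-loaded rats (30 mL/kg deionized water orally) given AVP i.p. at 0.4 μg/kg. Test compounds were given orally at 0.1–100 mg/kg 1 h before AVP; 2–4 rats per compound.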

For the next test, the target named is T1, oxytocin receptors (Rattus norvegicus, UniProt P70536).
T1 construct: The uteri are dissected out, cleaned of fat and connective tissues; from tissue; host or cells: uterus of DES-treated female Sprague-Dawley rats
T1 sequence (P70536 1-388): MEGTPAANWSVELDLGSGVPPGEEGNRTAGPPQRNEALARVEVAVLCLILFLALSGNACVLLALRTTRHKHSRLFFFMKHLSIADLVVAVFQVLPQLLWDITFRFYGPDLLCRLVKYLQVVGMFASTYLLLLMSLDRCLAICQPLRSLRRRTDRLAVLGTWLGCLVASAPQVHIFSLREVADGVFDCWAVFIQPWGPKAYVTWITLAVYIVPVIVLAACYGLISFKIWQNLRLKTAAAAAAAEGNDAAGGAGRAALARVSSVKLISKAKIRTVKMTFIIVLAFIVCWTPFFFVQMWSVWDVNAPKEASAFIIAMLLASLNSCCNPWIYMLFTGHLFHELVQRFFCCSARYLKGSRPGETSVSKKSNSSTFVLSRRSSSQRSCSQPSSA
Put plainly: Oxytocin Receptor Binding. The note with it: for IC50: 1.0 nM [3H]oxytocin; for inhibition at 10 µM: [3H]oxytocin. An outline of the steps: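 IC50 is the concentration displacing 50% of 1.0 nM [3H]OT, incubated 60 min at 22 °C in pH 7.4 Tris/MgCl2 buffer plus protease inhibitors, then filtered. Receptor source: uterine membranes from rats given 0.3 mg/kg DES i.m. 18 h earlier. 1.0 uM cold OT defined non-specific binding.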

For test [1], the target named is T2, Rat Kidney Medullary V2 Receptors (Rattus norvegicus, UniProt Q00788).
T2 construct: Medullary tissues from rat kidneys are dissected out; from tissue; host or cells: rat kidney medulla membranes
The experiment in a line: Binding Assay to Rat Kidney Medullary V2 Receptors. The note with it: for IC50: rat kidney medulla membranes, read-out: V2 IC50. The gist of the method: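 IC50 derived from competition curves; bound tritium counted by liquid scintillation after filtration. Rat medullary kidney membranes (Tris-HCl pH 7.4, BSA, PMSF) were incubated 120 min to equilibrium with radioligand and test compound (added in 50% DMSO). Nonspecific binding: 1.0 μM unlabeled ligand.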

The next test concerns the target T3, Rat Hepatic V1 Receptors (Rattus norvegicus, UniProt P30560).
T3 construct: Rat liver plasma membranes expressing the vasopressin V1 receptor subtypes; from tissue; host or cells: rat liver plasma membranes
The experiment in a line: Binding Assay to Rat Hepatic V1 Receptors. The note with it: for inhibition at 10 µM: 2 h, rat.

For test [2], the target named is T4, Human V2 Vasopressin Receptor (Homo sapiens, UniProt P30518).
T4 construct: expressed in transfected cells; host or cells: mouse fibroblast cell line LV-2
Put plainly: Binding to Membranes of Mouse Fibroblast Cell Line (LV-2) Transfected with the cDNA Expressing the Human V2 Vasopressin Receptor. The method, then:
Binding to Membranes of Mouse Fibroblast Cell Line (LV-2) Transfected with the cDNA Expressing the Human V2 Vasopressin Receptor
Flasks of 175 ml capacity, containing attached cells grown to confluence, are cleared of culture medium by aspiration. The flasks containing the attached cells are rinsed with 2×5 ml of phosphate buffered saline (PBS) and the liquid aspirated off each time. Finally, 5 ml of an enzyme free dissociation Hank's based solution (Specialty Media, Inc., Lafayette, N.J.) is added and the flasks are left undisturbed for 2 min. The content of all flasks is. poured into a centrifuge tube and the cells pelleted at 300× g for 15 min. The Hank's based solution is aspirated off and the cells homogenized with a polytron at setting #6 for 10 sec in 10.0 mM Tris.HCl buffer, pH 7.4 containing 0.25M sucrose and 1.0 mM EDTA. The homogenate is centrifuged at 1500× g for 10 min to remove ghost membranes. The supernatant fluid is centrifuged at 100,000× g for 60 min. to pellet the receptor protein. Upon completion, the pellet is resuspended in a small volume of 50.0 mM Tris. HCl buffer, pH 7.4. The protein content is determined by the Lowry method and the receptor membranes are suspended in 50.0 mM Tris.HCl buffer containing 0.1 mM phenylmethylsulfonylfluoride (PMSF) and 0.2% bovine serum albumin (BSA) to give 2.5 mg receptor protein per ml of suspension.
Arginine^8, vasopressin (S.A. 75.0 Ci/mmole) at 0.8 nM and the reaction initiated by the addition of 80.0 μl of tissue membranes (200.0 μg tissue protein). The plates are left undisturbed on the bench top for 120 min to reach equilibrium. Non specific binding is assessed in the presence of 1.0 μM of unlabeled ligand, added in 20 μl volume. For test compounds, these are solubilized in 50% dimethylsulfoxide (DMSO) and added in 20.0 μl volume to a final incubation volume of 200 μl. Upon completion of binding, the content of each well is filtered off, using a Brandel® cell Harvester (Gaithersburg, Md.). The radioactivity trapped on the filter disk by the ligand-receptor complex is assessed by liquid scintillation counting in a Packard LS Counter, with an efficiency of 65% for tritium. The data are analyzed for IC50 values by the LUNDON-2 program for competition (LUNDON SOFTWARE, Ohio).

Test [3] concerns the target T5, V1 Receptor Subtype in Human Platelet (Homo sapiens, UniProt P37288).
T5 construct: tissue Hudson Valley Blood Services, Westchester Medical Center, Valhalla, N.Y; host or cells: human platelets (frozen platelet rich plasma)
The experiment in a line: Binding to Vasopressin V1 receptor subtype in Human Platelet Membranes. The note with it: human platelet membranes. The procedure:
Radioligand Binding Experiments with Human Platelet Membranes (a) Platelet Membrane Preparation: Frozen platelet rich plasma (PRP), (Platelet Source: Hudson Valley Blood Services, Westchester Medical Center, Valhalla, N.Y.) are thawed to room temperature. The tubes containing the PRP are centrifuged at 16,000×g for 10 min. at 4° C. and the supernatant fluid discarded. […] The suspension is recentrifuged at 16,000× g for 10 min. This washing step is repeated one more time. The wash discarded and the lysed pellets homogenized in low ionic strength buffer of Tris.HCl, 5.0 mM, pH 7.5 containing 5.0 mM EDTA. The homogenate is centrifuged at 39,000× g for 10 min. The resulting pellet is resuspended in Tris. […] The final pellet is resuspended in 50.0 mM Tris. HCl buffer pH 7.4 containing 120 mM NaCl and 5.0 mM KCl to give 1.0-2.0 mg protein per ml of suspension. […] Platelet Membranes […] Then add 20 μl of [^3 H]Ligand (Manning or […] Vasopressin), to give final concentrations ranging from 0.01 to 10.0 nM. Initiate the binding by adding 80.0 μl of platelet suspension (approx. 100 μg protein). Mix all reagents by pipetting the mixture up and down a few times. Non specific binding is measured in the presence of 1.0 μM of unlabeled ligand (Manning or […] Vasopressin). Let the mixture stand undisturbed at room temperature for ninety (90) min. Upon this time, rapidly filter off the incubate under vacuum suction over GF/B filters, using a Brandel Harvester. Determine the radioactivity caught on the filter disks by the addition of liquid scintillant and counting in a liquid scintillator.

Where [4] appears, read: rat liver membranes, read-out: V1 IC50.
[5] abbreviates: LV-2 cell membranes, human V2, read-out: V2 IC50 (**).

T3 sequence (P30560 whole entry): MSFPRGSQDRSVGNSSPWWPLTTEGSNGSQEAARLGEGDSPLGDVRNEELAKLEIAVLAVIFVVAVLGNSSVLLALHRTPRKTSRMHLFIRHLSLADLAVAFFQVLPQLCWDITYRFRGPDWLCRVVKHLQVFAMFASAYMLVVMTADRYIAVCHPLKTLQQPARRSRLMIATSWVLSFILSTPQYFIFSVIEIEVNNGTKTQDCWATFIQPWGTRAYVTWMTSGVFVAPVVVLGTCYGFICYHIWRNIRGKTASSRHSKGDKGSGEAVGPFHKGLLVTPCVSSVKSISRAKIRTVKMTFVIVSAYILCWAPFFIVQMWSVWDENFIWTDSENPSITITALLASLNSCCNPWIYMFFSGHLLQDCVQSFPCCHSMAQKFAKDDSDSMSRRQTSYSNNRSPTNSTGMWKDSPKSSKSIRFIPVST
T2 sequence (Q00788 whole entry): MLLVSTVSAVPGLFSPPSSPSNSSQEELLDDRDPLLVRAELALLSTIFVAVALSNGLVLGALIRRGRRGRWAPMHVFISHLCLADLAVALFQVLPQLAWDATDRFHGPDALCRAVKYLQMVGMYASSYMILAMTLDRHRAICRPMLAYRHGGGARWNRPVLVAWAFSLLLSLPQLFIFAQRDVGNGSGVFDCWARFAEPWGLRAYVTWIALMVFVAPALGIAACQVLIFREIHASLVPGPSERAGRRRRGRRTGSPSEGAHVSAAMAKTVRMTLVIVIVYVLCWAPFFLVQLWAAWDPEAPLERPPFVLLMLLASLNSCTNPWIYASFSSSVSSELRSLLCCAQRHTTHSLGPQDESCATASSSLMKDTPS
T5 sequence (P37288 whole entry): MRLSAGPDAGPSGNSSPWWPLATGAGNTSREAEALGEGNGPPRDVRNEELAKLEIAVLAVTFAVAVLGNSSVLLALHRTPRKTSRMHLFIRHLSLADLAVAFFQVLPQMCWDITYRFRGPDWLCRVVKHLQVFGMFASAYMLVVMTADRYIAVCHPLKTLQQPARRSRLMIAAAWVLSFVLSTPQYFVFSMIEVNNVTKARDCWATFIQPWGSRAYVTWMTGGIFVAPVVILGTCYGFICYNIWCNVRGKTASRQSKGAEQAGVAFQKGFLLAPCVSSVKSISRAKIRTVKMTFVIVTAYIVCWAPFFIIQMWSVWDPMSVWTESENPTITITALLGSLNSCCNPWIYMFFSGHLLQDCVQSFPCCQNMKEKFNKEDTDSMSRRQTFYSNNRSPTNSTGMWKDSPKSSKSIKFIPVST
T4 sequence (P30518 whole entry): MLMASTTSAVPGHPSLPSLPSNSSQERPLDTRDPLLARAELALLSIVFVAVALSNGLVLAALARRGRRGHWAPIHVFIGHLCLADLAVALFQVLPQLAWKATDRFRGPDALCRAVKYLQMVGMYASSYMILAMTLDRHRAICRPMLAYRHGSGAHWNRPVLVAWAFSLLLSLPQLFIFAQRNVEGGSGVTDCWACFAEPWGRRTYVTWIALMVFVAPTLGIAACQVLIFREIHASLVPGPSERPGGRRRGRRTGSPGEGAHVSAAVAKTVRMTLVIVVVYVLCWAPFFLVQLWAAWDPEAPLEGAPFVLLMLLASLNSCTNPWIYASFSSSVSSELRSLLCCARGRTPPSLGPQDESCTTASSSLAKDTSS

The term IC50 denotes the concentration at which inhibition is half-maximal. For orientation: inhibition means the share of the control response that was lost under treatment. Higher therefore signals strong suppression. For `Cc1ccccc1C(=O)Nc1ccc(C(=O)N2CCc3cccn3-c3ccccc32)cc1` [Example 297], in the test on Vasopressin V2, the Osmolality was 796 mOsm/kg and the “Urine Volume” value is 7 ml/4 hrs. For the same compound, on oxytocin receptors, the half-maximal inhibitory concentration (IC50) amounted to 4 µM and the inhibition at 10 µM is 76%. Further, in test [1], the IC50 worked out at 33 nM. Also, the half-maximal inhibitory concentration (IC50) at Rat Hepatic V1 Receptors (setting [4]) turned out to be 270 nM.
For `Cc1cc(C(=O)N2Cc3cccn3Cc3ccccc32)cc(C)c1NC(=O)c1ccc(Cl)cc1Cl` [Example 473], the Osmolality in the test on Vasopressin V2 was determined as 1493 mOsm/kg. Moreover, the “Urine Volume” value with Vasopressin V2 is 2.3 ml/4 hrs. Moreover, the results for the inhibition at 10 µM (on oxytocin receptors; in test [1] (rat); on Rat Hepatic V1 Receptors) were 20%, 56% and 90%, respectively.
For `CN(C)CCSC(C(=O)Nc1ccc(C(=O)N2Cc3cccn3Cc3ccccc32)cc1)c1ccccc1` (stereo not drawn) [Example 584, α-[[2-(Dimethylamino)ethyl]thio]-N-[4-(5H-pyrrolo[2,1-c][1,4]benzodiazepin-10(11H)-ylcarbonyl)phenyl]benzeneacetamide], in the test with Vasopressin V2, the Osmolality was determined as 1718 mOsm/kg and the “Urine Volume” value is given as 2.5 ml/4 hrs. The inhibition at 10 µM at oxytocin receptors was 26%. The half-inhibitory concentration (IC50) in test [1] worked out at 480 nM. Besides, the IC50 at Rat Hepatic V1 Receptors (setting [4]) was 1200 nM.
For `CN(C)C(C(=O)Nc1ccc(C(=O)N2Cc3cccn3Cc3ccccc32)cc1)c1ccccc1` (stereo not drawn) [Example 586, α-(Dimethylamino)-N-[4-(5H-pyrrolo[2,1-c][1,4]benzodiazepin-10(11H)-ylcarbonyl)phenyl]benzeneacetamide], in the test on Vasopressin V2, the Osmolality was 1196 mOsm/kg and the “Urine Volume” value was 4.3 ml/4 hrs. At oxytocin receptors, this compound gave a concentration for half-maximal inhibition (IC50) of 4.7 µM and an inhibition at 10 µM of 61%. In test [1], the IC50 was found to be 230 nM. For the same compound, the IC50 on Rat Hepatic V1 Receptors (setting [4]) was found to be 450 nM.
In the test with Vasopressin V2, `O=C(Nc1ccc(C(=O)N2Cc3ccc(C(=O)C(Cl)(Cl)Cl)n3Cc3ccccc32)cc1)c1ccccc1C(F)(F)F` [Example 597] had an Osmolality of 1250 mOsm/kg. Moreover, the “Urine Volume” value with Vasopressin V2 came to 5.3 ml/4 hrs. Moreover, the inhibition at 10 µM was 42% on oxytocin receptors, 97% in test [1] (rat) and 100% on Rat Hepatic V1 Receptors.
For the compound `Cc1c(F)cccc1C(=O)Nc1ccc(C(=O)N2CCc3cccn3-c3ccccc32)c(Cl)c1` [Example 611, N-[4-[(6,7-Dihydro-5H-pyrrolo[1,2-a]-[1,5]benzodiazepin-5-yl)carbonyl]-3-chlorophenyl]-3-fluoro-2-methyl-benzamide], the IC50 in test [2] (setting [5]) came out at 4 nM; in test [3] it was 500 nM.
For the compound `Cc1ccc(F)cc1C(=O)Nc1ccc(C(=O)N2CCc3cccn3-c3ccccc32)c(Cl)c1` [Example 612, N-[4-[(6,7-Dihydro-5H-pyrrolo[1,2-a]-[1,5]benzodiazepin-5-yl)carbonyl]-3-chlorophenyl]-5-fluoro-2-methyl-benzamide], the IC50 in test [2] (setting [5]) came to 10 nM; in test [3] it was 1700 nM.
As to `Cc1ccccc1C(=O)Nc1ccc(C(=O)N2Cc3ccc(CN(C)C)n3Cc3ccccc32)c(Cl)c1` [Example 669, N-[4-[[3-[(dimethylamino)methyl]-5H-pyrrolo[2,1-c][1,4]benzodiazepin-10(11H)-yl]carbonyl]-3-chlorophenyl]-2-methylbenzamide], the results for the IC50 in test [2] (setting [5]) and in test [3] were 35 nM and 71 nM, respectively.
The matching figures for `O=Cc1cccn1CC(=O)Nc1ccc(C(=O)N2Cc3cccn3Cc3ccccc32)cc1` [Example 685, N-[4-(5H-Pyrrolo[2,1-c][1,4]benzodiazepin-10(11H)-ylcarbonyl)phenyl]-2-(2-formyl-1-pyrrolo)acetamide]: 61 nM and 61 nM.
Consider `CC(=O)Oc1ccccc1C(=O)Nc1ccc(C(=O)N2Cc3cccn3Cc3ccccc32)cc1` [Example 688, N-[4-(5H-pyrrolo[2,1-c][1,4]benzodiazepin-10(11H)-ylcarbonyl)phenyl]-2-(acetoxy)benzamide], for which the IC50 stood at 34 nM in test [2] (setting [5]) and 69 nM in test [3].
The matching figures for `O=C(Nc1ccc(C(=O)N2Cc3cccn3Cc3ccccc32)cc1)c1ccccc1O` [Example 689, N-[4-(5H-pyrrolo[2,1-c][1,4]benzodiazepin-10(11H-)-ylcarbonyl)phenyl]-2-hydroxybenzamide]: 540 nM and 85 nM.
The matching figures for `O=C(Nc1ccc(C(=O)N2Cc3cccn3Cc3ccccc32)cc1)c1cccc2ccccc12` [Example 690, N-[4-(5H-pyrrolo[2,1-c][1,4]benzodiazepin-10(11H)-ylcarbonyl)phenyl]-1-naphthylcarboxamide]: 22 nM and 220 nM.
`Cc1ccc(F)cc1C(=O)Nc1ccc(C(=O)N2Cc3cccn3Cc3ccccc32)c(C)c1` [Example 694, N-[4-(5H-pyrrolo[2,1-c][1,4]benzodiazepin-10(11H)-ylcarbonyl)-3-methylphenyl]-5-fluoro-2-methylbenzamide]: the half-maximal inhibitory concentration (IC50) came to 1.7 nM in test [2] and 120 nM at Rat Hepatic V1 Receptors.
Regarding `Cc1ccc(C)c(C(=O)Nc2ccc(C(=O)N3Cc4cccn4Cc4ccccc43)c(Cl)c2)c1` [Example 701, N-[4-(5H-pyrrolo[2,1-c][1.4]benzodiazepin-10(11H)-ylcarbonyl)-3-chloro-phenyl]-2,5-dimethylbenzamide], the inhibition at 1 µM in test [1] (1 μM, rat) was found to be 100%. The compound further had a concentration for half-maximal inhibition (IC50) in test [3] of 340 nM.
